Values joined by “and” are separate entries in the source; they are usually repeats but may differ in a detail not shown here. Equal values may be shown once. “Also recorded” adds a separate entry of the source. Where a name gives a salt, the structure may show the parent alone.
System: scopolamine-treated cynomolgus monkeys
Assay: Scopolamine-induced impairment of vsPAL task performance, treatment + scopolamine
Assay type: in vivo, cynomolgus monkeys (Macaca Fasicularis)
Procedure: Doses cited refer to the free base form of the compounds. […] All drugs were administered intramuscularly (i.m.) in a dosing volume of 0.1–0.2 ml/kg.
On days when compound testing occurred, approximately half the cohort received one dose and the remainder another dose of the same compound and therefore dose order was staggered between animals. With the exception of EVP-6124, all other compounds were tested in a single dose response study.
Cohen’s d values of >0.2, >0.5 and >0.8 are described using the conventions of small, medium, and large effects, respectively.

[1] = 0.3 mg/kg + scopolamine vs vehicle+scopolamine, eventual accuracy, 4-stimuli
[2] = Donepezil 0.03 mg/kg + Scopolamine, group MEAN of 6 animals
[3] = Donepezil 0.03 mg/kg + Scopolamine, individual animals
[4] = Donepezil 0.1 mg/kg + Scopolamine, group MEAN of 6 animals
[5] = Donepezil 0.1 mg/kg + Scopolamine, individual animals
[6] = Donepezil 0.3 mg/kg + Scopolamine, group MEAN (one animal without value)
[7] = Donepezil 0.3 mg/kg + Scopolamine, group MEAN of 6 animals
[8] = Donepezil 0.3 mg/kg + Scopolamine, individual animals
[9] = all doses of the study, for EVP-6124 study (1)
[10] = compound 0.03 mg/kg i.m. + Scopolamine
[11] = compound 0.10 mg/kg i.m. + Scopolamine
[12] = compound 0.30 mg/kg i.m. + Scopolamine

COc1cc2c(cc1OC)C(=O)C(CC1CCN(Cc3ccccc3)CC1)C2 (centres unmarked) [Donepezil, Donepezil hydrochloride]
Cohen's d [1]: 1.2 and 1.199
effect r [1]: 0.514
effect on scopolamine-induced impairment of eventual accuracy (0.3 mg/kg i.m., 4-stimuli condition): significantly ameliorated; also recorded: significantly reversed
mean (cohen's d calculations) (0.3 mpk + scop, eventual correct, 4-stimuli condition): 68.7
% Completion [2]: 79.4%
Average Response Latency [2]: 2339.5 ms
Eventual Correct, 2 Stimuli [2]: 100.0%
Eventual Correct, 3 Stimuli [2]: 86.7%
Eventual Correct, 4 Stimuli [2]: 42.1%
Eventual Correct, Overall Mean % Correct [2]: 76.2%
Initial Correct, 3 Stimuli [2]: 58.3%
Initial Correct, 4 Stimuli [2]: 16.7%
Initial Correct, Overall Mean % Correct [2]: 52.2%
Initial correct, 2 Stimuli [2]: 81.7%
% Completion [3]: 76.8% and 57.3% and 85.4% and 84.6% and 100.0% and 72.4%
Average Response Latency [3]: 2796.9 ms and 1893.7 ms and 2469.8 ms and 2357.9 ms and 2353.0 ms
Eventual Correct, 2 Stimuli [3]: 100.0%
Eventual Correct, 3 Stimuli [3]: 90.0% and 80.0% and 50.0% and 100.0%
Eventual Correct, 4 Stimuli [3]: 30.0% and 12.5% and 0.0% and 80.0% and 70.0% and 60.0%
Eventual Correct, Overall Mean % Correct [3]: 73.3% and 64.2% and 50.0% and 93.3% and 90.0% and 86.7%
Initial Correct, 3 Stimuli [3]: 50.0% and 70.0% and 40.0% and 60.0% and 90.0%
Initial Correct, 4 Stimuli [3]: 10.0% and 0.0% and 30.0%
Initial Correct, Overall Mean % Correct [3]: 50.0% and 56.7% and 36.7% and 46.7% and 73.3%
Initial correct, 2 Stimuli [3]: 90.0% and 100.0% and 70.0% and 60.0%
% Completion [4]: 80.6%
Average Response Latency [4]: 2361.5 ms
Eventual Correct, 2 Stimuli [4]: 98.3%
Eventual Correct, 3 Stimuli [4]: 90.0%
Eventual Correct, 4 Stimuli [4]: 50.0%
Eventual Correct, Overall Mean % Correct [4]: 79.4%
Initial Correct, 3 Stimuli [4]: 63.3%
Initial Correct, 4 Stimuli [4]: 30.0%
Initial Correct, Overall Mean % Correct [4]: 57.2%
Initial correct, 2 Stimuli [4]: 78.3%
% Completion [5]: 70.7% and 75.0% and 77.6% and 100.0% and 96.4% and 63.8%
Average Response Latency [5]: 2305.7 ms and 2751.0 ms and 1701.8 ms and 2272.3 ms and 2849.3 ms and 2289.1 ms
Eventual Correct, 2 Stimuli [5]: 90.0% and 100.0%
Eventual Correct, 3 Stimuli [5]: 60.0% and 90.0% and 100.0%
Eventual Correct, 4 Stimuli [5]: 0.0% and 90.0% and 50.0% and 60.0%
Eventual Correct, Overall Mean % Correct [5]: 50.0% and 93.3% and 80.0% and 83.3% and 86.7%
Initial Correct, 3 Stimuli [5]: 90.0% and 80.0% and 40.0% and 20.0% and 70.0%
Initial Correct, 4 Stimuli [5]: 50.0% and 30.0% and 0.0% and 40.0%
Initial Correct, Overall Mean % Correct [5]: 76.7% and 70.0% and 36.7% and 63.3% and 33.3%
Initial correct, 2 Stimuli [5]: 90.0% and 100.0% and 70.0% and 50.0%
Eventual Correct, 4 Stimuli [6]: 68.7%
Initial Correct, 4 Stimuli [6]: 28.2%
Average Response Latency [7]: 2371.0 ms
Eventual Correct, 2 Stimuli [7]: 98.3%
Eventual Correct, 3 Stimuli [7]: 85.0%
Eventual Correct, Overall Mean % Correct [7]: 84.9%
Initial Correct, 3 Stimuli [7]: 63.3%
Initial Correct, Overall Mean % Correct [7]: 58.4%
Initial correct, 2 Stimuli [7]: 80.0%
% Completion [8]: 41.3% and 69.1% and 98.4% and 98.6% and 98.3% and 61.0%
Average Response Latency [8]: 2379.3 ms and 1959.4 ms and 2184.7 ms and 2330.5 ms and 2840.5 ms and 2531.9 ms
Eventual Correct, 2 Stimuli [8]: 100.0% and 90.0%
Eventual Correct, 3 Stimuli [8]: 70.0% and 90.0% and 100.0%
Eventual Correct, 4 Stimuli [8]: 60.0% and 80.0% and 90.0% and 33.3%
Eventual Correct, Overall Mean % Correct [8]: 85.0% and 83.3% and 93.3% and 90.0% and 86.7% and 71.1%
Initial Correct, 3 Stimuli [8]: 50.0% and 80.0% and 70.0% and 60.0%
Initial Correct, 4 Stimuli [8]: 20.0% and 50.0% and 40.0% and 11.1%
Initial Correct, Overall Mean % Correct [8]: 50.0% and 66.7% and 53.3% and 63.3% and 50.4%
Initial correct, 2 Stimuli [8]: 50.0% and 100.0% and 80.0% and 90.0%
Holm-Sidak Post-Hoc, Treatment+Scopolamine differs from Vehicle+Scopolamine: percent correct on initial attempt, 3-stimuli (all doses of the study): n.s.
Holm-Sidak Post-Hoc, Treatment+Scopolamine differs from Vehicle+Scopolamine: Choice Response Latency [9]: n.s.
Holm-Sidak Post-Hoc, Treatment+Scopolamine differs from Vehicle+Scopolamine: Percent Task Completed [9]: n.s.
Holm-Sidak Post-Hoc, Treatment+Scopolamine differs from Vehicle+Scopolamine: percent correct on initial attempt, 2-stimuli [9]: n.s.
Holm-Sidak Post-Hoc, Treatment+Scopolamine differs from Vehicle+Scopolamine: percent correct on initial attempt, 4 stimuli [9]: n.s.
Percent Correct on Initial Attempt (SEM), 2 stimuli [10]: 81.7% (7.0%)
Percent Correct on Initial Attempt (SEM), 3 stimuli [10]: 58.3% (7.9%)
Percent Correct on Initial Attempt (SEM), 4 stimuli [10]: 16.7% (6.1%)
Percent Correct on Initial Attempt (SEM), 2 stimuli [11]: 78.3% (7.5%)
Percent Correct on Initial Attempt (SEM), 3 stimuli [11]: 63.3% (11.2%)
Percent Correct on Initial Attempt (SEM), 4 stimuli [11]: 30.0% (6.8%)
Percent Correct on Initial Attempt (SEM), 2 stimuli [12]: 80.0% (6.8%)
Percent Correct on Initial Attempt (SEM), 3 stimuli [12]: 63.3% (4.2%)
Percent Correct on Initial Attempt (SEM), 4 stimuli [12]: 28.2% (7.2%)

— publication PMC5736175, “Nicotinic alpha 7 receptor agonists EVP-6124 and BMS-933043, attenuate scopolamine-induced deficits in visuo-spatial paired associates learning” (PLoS ONE, 2017)
